According to article PMC11219871, “Epigenetic-based differentiation therapy for Acute Myeloid Leukemia” (Nature Communications, 2024):
“And” between values parts separate entries of the source, which are not always exact repeats. Equal entries are not always repeated.

How the values were obtained:
Type in all cases: cell-based, human
[1] = system: HL-60; test: Differentiation-apoptosis assay, CD11b / annexin-V / Sytox Green / myeloid markers flow cytometry; parameters: CD11b levels: unit not given here; settings: for Annexin V (%) Replicate 1 / Annexin V (%) Replicate 2 / Annexin V (%) Replicate 3 / CD11b (%) Replicate 1 / CD11b (%) Replicate 2 / CD11b (%) Replicate 3: HL-60, daily 25% GI50, 48 h
Description: Next, the cells were washed twice with phosphate-buffered saline (PBS) and resuspended in 1X Binding Buffer at a concentration of 1 × 10^6 cells/mL. […] Finally, after the addition of 400 µL of 1X Binding Buffer to each tube, samples were collected on a BD FACSCanto flow cytometer (Becton Dickinson, San Jose, CA, USA) and analyzed using FlowJo software.
Then, 1 million cells (volume of 250 µL) were added and incubated for 30 min at room temperature in darkness. After 10 min incubation at room temperature with 2 mL of FACSLysing 1X, cells were centrifuged at 540 g for 5 min and washed twice with FACSBuffer. Finally, after centrifugation at 540 g for 5 min cells were resuspended in FACSBuffer.

[2] = system: LINE-1 DNA methylation in HL-60; test: LINE-1 pyrosequencing; settings: HL-60, 10 days
Description: (§1) DNA methylation of the repetitive element LINE-1 was analyzed using a pyrosequencing technique. […] Cells were washed twice with PBS, and then genomic DNA was extracted using a DNA Kit (Nucleo Spin Tissue, Cat No 74095250, Macherey-Nagel) following the manufacturer's instructions. DNA purity and concentration were measured using a NanoDrop spectrophotometer (Thermo Scientific). A 1 μg amount of genomic DNA was treated and modified using a CpGenome DNA modification Kit (Cat No S7820, Chemicon International) following the manufacturer's instructions. […] [NT]) in a final volume of 25 μL. The resulting biotinylated PCR products were immobilized to Streptavidin Sepharose ® High-Performance beads (GE Healthcare) and processed to yield high-quality ssDNA using the PyroMark Vacuum Prep Workstation (Biotage) according to the manufacturer's instructions. The pyrosequencing reactions were performed using the PyromarkTM ID (Biotage), and sequence analysis was performed using the PyroQ-CpG analysis software (Biotage).

[3] = system: LINE-1 DNA methylation in ML-2; test: LINE-1 pyrosequencing; settings: ML-2, 10 days
Description: as §1

[4] = system: LINE-1 DNA methylation in MOLM-13; test: LINE-1 pyrosequencing; settings: MOLM-13, 5 days
Description: as §1

[5] = system: LINE-1 DNA methylation in MV4-11; test: LINE-1 pyrosequencing; settings: MV4-11, 5 days
Description: as §1

[6] = system: ML-2; test: Differentiation-apoptosis assay, CD11b / annexin-V / Sytox Green / myeloid markers flow cytometry; parameters: CD11b levels: unit not given here; settings: ML-2 treated daily for 48 h; replicates (Fig 6E)
Description: (§2) Next, the cells were washed twice with phosphate-buffered saline (PBS) and resuspended in 1X Binding Buffer at a concentration of 1 × 10^6 cells/mL. An 8-µL aliquot of APC-CD11b (BD Pharmingen, Franklin Lakes, NJ, USA) and 1 µL of FITC annexin-V (AV) (BD Pharmingen, Franklin Lakes, NJ, USA) antibodies were added and incubated for 15 min at room temperature in the dark. Finally, after the addition of 400 µL of 1X Binding Buffer to each tube, samples were collected on a BD FACSCanto flow cytometer (Becton Dickinson, San Jose, CA, USA) and analyzed using FlowJo software.
(§3) For the rest of experiments, the mix of antibodies (2 µL of BV786-CD13, Cat No, 744748 BD; 1 µL of diluted 1:10 antibody of PB-HLADR, Cat No 307633, Biolegend; 5 µL of APCH7-CD14, Cat No 641394, BD) was added to 10 µL of Brilliant Stain Buffer Plus (Becton Dickinson, San Jose, CA, USA). Then, 1 million cells (volume of 250 µL) were added and incubated for 30 min at room temperature in darkness. After 10 min incubation at room temperature with 2 mL of FACSLysing 1X, cells were centrifuged at 540 g for 5 min and washed twice with FACSBuffer. Finally, after centrifugation at 540 g for 5 min cells were resuspended in FACSBuffer.

[7] = system: MOLM-13; test: as above; parameters: CD11b levels: unit not given here; settings: MOLM-13, daily treatment for 48 h, replicates 1-3 (Suppl. Fig. 9A)
Description: as §2, §3

[8] = system: MV4-11; test: as above; parameters: CD11b levels: unit not given here; settings: MV4-11, daily treatment for 48 h, replicates 1-3 (Suppl. Fig. 9A)
Description: as §2, §3

Q: `Nc1ncn([C@H]2C[C@H](O)[C@@H](CO)O2)c(=O)n1` [Decitabine, reference compound] was tested. Which “Annexin V (%) Replicate 1” value [1] did it give?
A: 4.10%

Q: And the “Annexin V (%) Replicate 2” value [1]?
A: 3.17%

Q: What about the “Annexin V (%) Replicate 3” value [1] of the same molecule?
A: 2.48%

Q: And the “CD11b (%) Replicate 1” value [1]?
A: 7.50%

Q: And the “CD11b (%) Replicate 2” value [1]?
A: 9.90%

Q: And the “CD11b (%) Replicate 3” value [1]?
A: 9.03%

Q: What about the “LINE-1 methylation (%) CG Position 1” value [2] of the same molecule?
A: 35% and 39%

Q: And the “LINE-1 methylation (%) CG Position 2” value [2]?
A: 32% and 40%

Q: What about the “LINE-1 methylation (%) CG Position 3” value [2] of the same molecule?
A: 43% and 55%

Q: And the “LINE-1 methylation (%) CG Position 4” value [2]?
A: 44% and 52%

Q: And the “LINE-1 methylation (%) CG Position 5” value [2]?
A: 33% and 37%

Q: And the “LINE-1 methylation (%) CG Position 1” value [3]?
A: 36% and 34%

Q: And the “LINE-1 methylation (%) CG Position 2” value [3]?
A: 39% and 33%

Q: What about the “LINE-1 methylation (%) CG Position 3” value [3] of the same molecule?
A: 42%

Q: And the “LINE-1 methylation (%) CG Position 4” value [3]?
A: 41% and 39%

Q: What about the “LINE-1 methylation (%) CG Position 5” value [3] of the same molecule?
A: 32% and 28%

Q: And the “LINE-1 methylation (%) CG Position 1” value [4]?
A: 36% and 38%

Q: What about the “LINE-1 methylation (%) CG Position 2” value [4] of the same molecule?
A: 37% and 43%

Q: What about the “LINE-1 methylation (%) CG Position 3” value [4] of the same molecule?
A: 48% and 46%

Q: And the “LINE-1 methylation (%) CG Position 4” value [4]?
A: 46% and 54%

Q: What about the “LINE-1 methylation (%) CG Position 5” value [4] of the same molecule?
A: 37% and 35%

Q: What about the “LINE-1 methylation (%) CG Position 1” value [5] of the same molecule?
A: 53% and 47%

Q: And the “LINE-1 methylation (%) CG Position 2” value [5]?
A: 50% and 54%

Q: And the “LINE-1 methylation (%) CG Position 3” value [5]?
A: 53% and 55%

Q: And the “LINE-1 methylation (%) CG Position 4” value [5]?
A: 55% and 53%

Q: And the “LINE-1 methylation (%) CG Position 5” value [5]?
A: 43% and 45%

Q: What does the source list for `CCNC(=O)C[C@@H]1N=C(c2ccc(Cl)cc2)c2cc(OC)ccc2-n2c(C)nnc21` [Molibresib, reference compound]?
A: CD11b levels ([1]; HL-60 treated daily for 48 h, replicates (Fig 6D)): 14.6 and 15.6 and 12.7; CD11b levels [6]: 15.1 and 13.2 and 11.7; CD11b levels [7]: 13.1 and 10.8 and 12.3; CD11b levels [8]: 12.1 and 15.4 and 13.7

Q: For `COc1cc2c(cc1OCCCN1CCCC1)N=C(N)C21CCC1` [Compound A-366, A-366, reference compound], which “Annexin V (%) Replicate 1” value [1] is on record?
A: 1.45%

Q: What about the “Annexin V (%) Replicate 2” value [1] of the same molecule?
A: 1.05%

Q: What about the “Annexin V (%) Replicate 3” value [1] of the same molecule?
A: 1.10%

Q: What about the “CD11b (%) Replicate 1” value [1] of the same molecule?
A: 9.70%

Q: What about the “CD11b (%) Replicate 2” value [1] of the same molecule?
A: 5.40%

Q: And the “CD11b (%) Replicate 3” value [1]?
A: 4.85%
